# What was measured:
# [1] = molecular target: T1, G protein-coupled receptor kinase 3 (Homo sapiens) (UniProt P35626); test: Inhibition of human GRK3 at 500 nM by HotSpot assay relative to control
# T1 sequence (whole entry): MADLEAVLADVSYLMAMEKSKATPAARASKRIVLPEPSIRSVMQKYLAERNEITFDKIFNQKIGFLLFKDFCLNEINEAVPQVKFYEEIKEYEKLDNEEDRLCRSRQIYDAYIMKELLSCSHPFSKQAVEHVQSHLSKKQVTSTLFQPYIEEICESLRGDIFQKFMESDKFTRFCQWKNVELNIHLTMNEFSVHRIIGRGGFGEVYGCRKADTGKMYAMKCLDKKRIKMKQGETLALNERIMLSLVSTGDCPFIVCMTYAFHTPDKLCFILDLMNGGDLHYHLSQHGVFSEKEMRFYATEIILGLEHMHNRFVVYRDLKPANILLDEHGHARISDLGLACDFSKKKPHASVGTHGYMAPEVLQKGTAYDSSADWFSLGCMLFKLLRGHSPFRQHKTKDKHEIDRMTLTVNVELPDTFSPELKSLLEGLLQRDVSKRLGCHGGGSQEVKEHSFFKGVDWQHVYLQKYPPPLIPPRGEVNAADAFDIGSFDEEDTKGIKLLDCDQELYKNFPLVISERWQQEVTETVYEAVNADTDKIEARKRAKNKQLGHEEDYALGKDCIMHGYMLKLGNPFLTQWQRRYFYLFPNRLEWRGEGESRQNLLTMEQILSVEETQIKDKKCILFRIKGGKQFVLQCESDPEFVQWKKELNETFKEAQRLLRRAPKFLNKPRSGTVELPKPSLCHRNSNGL
# [2] = molecular target: T2, Serine/threonine-protein kinase Nek9 (Homo sapiens) (UniProt Q8TD19); test: Inhibition of human NEK9 at 500 nM by HotSpot assay relative to control
# T2 sequence (whole entry): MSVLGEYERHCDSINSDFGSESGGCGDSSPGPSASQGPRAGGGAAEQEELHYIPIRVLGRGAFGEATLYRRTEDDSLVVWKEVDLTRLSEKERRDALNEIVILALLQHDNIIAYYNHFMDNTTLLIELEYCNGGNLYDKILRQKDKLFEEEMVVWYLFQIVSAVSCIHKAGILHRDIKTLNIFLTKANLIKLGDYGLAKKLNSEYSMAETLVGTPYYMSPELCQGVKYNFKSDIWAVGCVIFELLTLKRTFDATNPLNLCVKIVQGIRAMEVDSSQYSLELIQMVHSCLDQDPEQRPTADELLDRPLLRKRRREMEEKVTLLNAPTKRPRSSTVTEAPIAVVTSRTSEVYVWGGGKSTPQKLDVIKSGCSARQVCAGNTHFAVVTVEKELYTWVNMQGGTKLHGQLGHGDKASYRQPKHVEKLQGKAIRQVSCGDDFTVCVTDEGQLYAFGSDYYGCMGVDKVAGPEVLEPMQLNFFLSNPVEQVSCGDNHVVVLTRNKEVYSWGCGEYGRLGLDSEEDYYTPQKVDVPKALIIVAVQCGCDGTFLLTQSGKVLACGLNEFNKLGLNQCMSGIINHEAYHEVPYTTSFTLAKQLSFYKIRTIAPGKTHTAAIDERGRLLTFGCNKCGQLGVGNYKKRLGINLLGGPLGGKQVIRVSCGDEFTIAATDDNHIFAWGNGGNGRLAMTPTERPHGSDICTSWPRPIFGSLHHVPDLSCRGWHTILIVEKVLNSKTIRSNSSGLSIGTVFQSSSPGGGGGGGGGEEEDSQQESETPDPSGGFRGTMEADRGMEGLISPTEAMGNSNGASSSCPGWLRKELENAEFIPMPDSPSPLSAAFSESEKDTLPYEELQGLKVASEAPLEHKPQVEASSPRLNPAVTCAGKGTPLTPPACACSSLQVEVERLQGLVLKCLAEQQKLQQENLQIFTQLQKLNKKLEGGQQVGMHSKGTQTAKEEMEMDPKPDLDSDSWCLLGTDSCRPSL
# [3] = molecular target: MAP/microtubule affinity-regulating kinase 3 (Homo sapiens) (UniProt P27448); test: Inhibition of human MARK3 at 1.82 nM by HotSpot assay relative to control
# MAP/microtubule affinity-regulating kinase 3 (Homo sapiens), sequence (P27448 whole entry, looked up): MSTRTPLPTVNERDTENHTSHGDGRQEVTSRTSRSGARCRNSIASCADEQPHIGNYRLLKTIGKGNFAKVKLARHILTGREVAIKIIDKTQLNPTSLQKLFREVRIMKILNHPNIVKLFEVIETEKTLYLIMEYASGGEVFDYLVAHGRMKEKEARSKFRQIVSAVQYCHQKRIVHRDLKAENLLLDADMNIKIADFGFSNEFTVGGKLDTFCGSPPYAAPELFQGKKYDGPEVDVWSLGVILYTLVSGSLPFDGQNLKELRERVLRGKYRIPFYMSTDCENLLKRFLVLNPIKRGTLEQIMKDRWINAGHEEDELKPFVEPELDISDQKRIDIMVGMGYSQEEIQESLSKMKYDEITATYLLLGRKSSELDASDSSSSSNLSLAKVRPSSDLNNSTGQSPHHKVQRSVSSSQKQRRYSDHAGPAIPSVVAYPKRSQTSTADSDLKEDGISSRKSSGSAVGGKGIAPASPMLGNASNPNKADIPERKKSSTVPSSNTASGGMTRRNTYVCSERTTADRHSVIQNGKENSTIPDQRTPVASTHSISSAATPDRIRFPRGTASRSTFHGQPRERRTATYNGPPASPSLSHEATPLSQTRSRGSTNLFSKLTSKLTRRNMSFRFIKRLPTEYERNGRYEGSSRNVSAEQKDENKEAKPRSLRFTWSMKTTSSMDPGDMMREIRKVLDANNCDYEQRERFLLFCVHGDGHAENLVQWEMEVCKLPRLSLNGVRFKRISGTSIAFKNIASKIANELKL
# [4] = molecular target: T3, 3-phosphoinositide-dependent protein kinase 1 (Homo sapiens) (UniProt O15530); test: Inhibition of human PDPK1 at 1.82 nM by HotSpot assay relative to control
# T3 sequence (whole entry): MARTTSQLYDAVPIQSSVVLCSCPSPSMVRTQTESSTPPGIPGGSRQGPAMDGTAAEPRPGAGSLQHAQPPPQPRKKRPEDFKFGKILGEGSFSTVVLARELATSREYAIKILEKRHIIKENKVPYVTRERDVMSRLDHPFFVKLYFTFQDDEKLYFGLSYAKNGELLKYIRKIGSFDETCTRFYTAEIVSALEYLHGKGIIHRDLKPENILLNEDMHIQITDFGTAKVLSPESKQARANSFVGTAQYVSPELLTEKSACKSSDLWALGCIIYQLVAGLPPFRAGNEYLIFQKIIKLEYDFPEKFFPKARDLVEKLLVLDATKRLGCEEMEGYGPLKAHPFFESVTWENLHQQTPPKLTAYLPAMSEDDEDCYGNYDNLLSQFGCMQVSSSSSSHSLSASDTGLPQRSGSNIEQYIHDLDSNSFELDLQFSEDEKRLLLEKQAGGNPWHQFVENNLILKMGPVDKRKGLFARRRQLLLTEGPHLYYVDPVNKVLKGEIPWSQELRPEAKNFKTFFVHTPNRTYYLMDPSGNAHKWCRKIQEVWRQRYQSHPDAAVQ
# [5] = molecular target: TGF-beta receptor type-2 (Homo sapiens) (UniProt P37173); test: Inhibition of human TGFBR2 at 1.82 nM by HotSpot assay relative to control
# TGF-beta receptor type-2 (Homo sapiens), sequence (P37173 whole entry): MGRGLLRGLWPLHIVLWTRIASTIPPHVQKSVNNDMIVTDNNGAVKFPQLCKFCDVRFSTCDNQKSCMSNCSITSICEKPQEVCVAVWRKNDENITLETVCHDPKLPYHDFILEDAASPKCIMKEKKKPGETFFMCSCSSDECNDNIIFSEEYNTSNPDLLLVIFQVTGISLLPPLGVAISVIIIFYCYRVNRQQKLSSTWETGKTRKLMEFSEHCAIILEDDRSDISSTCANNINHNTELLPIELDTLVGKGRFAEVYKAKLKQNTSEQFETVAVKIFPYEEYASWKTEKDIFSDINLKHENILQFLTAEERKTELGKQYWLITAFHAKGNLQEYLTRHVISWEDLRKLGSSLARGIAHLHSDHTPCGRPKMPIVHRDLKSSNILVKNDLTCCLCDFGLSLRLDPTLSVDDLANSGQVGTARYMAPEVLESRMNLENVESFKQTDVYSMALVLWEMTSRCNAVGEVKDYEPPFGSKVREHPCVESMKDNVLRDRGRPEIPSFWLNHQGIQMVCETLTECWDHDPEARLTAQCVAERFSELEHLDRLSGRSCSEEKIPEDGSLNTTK
# [6] = molecular target: Fibroblast growth factor receptor 4 (Homo sapiens) (UniProt P22455); test: Inhibition of human FGFR4 at 18.6 nM by HotSpot assay relative to control
# Fibroblast growth factor receptor 4 (Homo sapiens), sequence (P22455 22-802 limits assumed): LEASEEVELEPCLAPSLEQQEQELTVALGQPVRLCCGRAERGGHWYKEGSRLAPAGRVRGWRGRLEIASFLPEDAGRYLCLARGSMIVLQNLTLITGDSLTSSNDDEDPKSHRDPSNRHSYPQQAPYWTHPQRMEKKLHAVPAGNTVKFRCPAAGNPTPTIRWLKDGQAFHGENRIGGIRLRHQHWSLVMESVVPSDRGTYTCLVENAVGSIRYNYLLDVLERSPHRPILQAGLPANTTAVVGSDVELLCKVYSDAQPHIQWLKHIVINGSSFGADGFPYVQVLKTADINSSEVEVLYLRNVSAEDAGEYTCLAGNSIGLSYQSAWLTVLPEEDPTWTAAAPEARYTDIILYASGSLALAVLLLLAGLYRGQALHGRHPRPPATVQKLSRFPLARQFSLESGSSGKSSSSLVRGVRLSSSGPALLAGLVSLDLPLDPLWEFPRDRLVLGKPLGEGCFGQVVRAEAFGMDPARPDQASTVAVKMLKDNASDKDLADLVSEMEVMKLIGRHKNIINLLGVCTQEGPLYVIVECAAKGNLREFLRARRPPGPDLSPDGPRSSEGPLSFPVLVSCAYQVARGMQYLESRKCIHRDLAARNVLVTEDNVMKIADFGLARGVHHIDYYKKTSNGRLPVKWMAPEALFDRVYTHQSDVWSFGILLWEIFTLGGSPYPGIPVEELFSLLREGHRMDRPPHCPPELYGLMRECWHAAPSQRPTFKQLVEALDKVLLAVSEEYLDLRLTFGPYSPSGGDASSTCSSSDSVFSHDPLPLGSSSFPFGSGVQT
# [7] = molecular target: T4, Phosphorylase b kinase gamma catalytic chain, liver/testis isoform (Homo sapiens) (UniProt P15735); test: Inhibition of human PHKg2 at 18.6 nM by HotSpot assay relative to control
# T4 sequence (whole entry): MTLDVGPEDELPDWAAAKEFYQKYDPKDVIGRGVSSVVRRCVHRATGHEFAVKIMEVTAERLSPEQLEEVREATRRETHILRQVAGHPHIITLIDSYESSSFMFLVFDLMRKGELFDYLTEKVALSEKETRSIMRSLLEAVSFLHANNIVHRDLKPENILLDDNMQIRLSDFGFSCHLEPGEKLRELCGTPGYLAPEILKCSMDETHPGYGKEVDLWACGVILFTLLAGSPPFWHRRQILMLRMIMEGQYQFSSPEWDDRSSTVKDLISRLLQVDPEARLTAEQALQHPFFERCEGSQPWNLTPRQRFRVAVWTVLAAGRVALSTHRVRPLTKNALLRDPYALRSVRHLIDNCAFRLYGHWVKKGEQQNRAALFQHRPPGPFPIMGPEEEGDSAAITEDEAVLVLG
# [8] = molecular target: Insulin-like growth factor 1 receptor (Homo sapiens, UniProt P08069); conditions: dose 18.6 nM
# Insulin-like growth factor 1 receptor, sequence (P08069 31-736 limits assumed): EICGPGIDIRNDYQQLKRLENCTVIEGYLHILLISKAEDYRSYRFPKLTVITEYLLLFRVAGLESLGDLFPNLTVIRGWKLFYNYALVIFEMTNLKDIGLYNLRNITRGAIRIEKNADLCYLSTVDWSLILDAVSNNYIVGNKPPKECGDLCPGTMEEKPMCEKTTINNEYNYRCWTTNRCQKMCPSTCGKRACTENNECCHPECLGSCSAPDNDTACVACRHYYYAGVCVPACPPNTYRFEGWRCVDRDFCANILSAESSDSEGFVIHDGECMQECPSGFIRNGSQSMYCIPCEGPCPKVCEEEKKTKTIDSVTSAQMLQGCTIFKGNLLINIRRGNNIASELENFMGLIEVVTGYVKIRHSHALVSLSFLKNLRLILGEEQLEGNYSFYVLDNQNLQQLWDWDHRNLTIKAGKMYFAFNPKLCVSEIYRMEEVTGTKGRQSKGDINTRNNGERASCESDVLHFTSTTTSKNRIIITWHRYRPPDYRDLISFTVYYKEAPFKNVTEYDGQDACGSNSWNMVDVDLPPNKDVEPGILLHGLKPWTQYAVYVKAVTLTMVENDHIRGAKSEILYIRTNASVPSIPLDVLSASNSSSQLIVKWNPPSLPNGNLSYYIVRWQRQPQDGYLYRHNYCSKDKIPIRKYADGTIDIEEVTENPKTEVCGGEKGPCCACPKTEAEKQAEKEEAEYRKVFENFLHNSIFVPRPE
# Insulin-like growth factor 1 receptor, sequence (P08069 741-1367 limits assumed): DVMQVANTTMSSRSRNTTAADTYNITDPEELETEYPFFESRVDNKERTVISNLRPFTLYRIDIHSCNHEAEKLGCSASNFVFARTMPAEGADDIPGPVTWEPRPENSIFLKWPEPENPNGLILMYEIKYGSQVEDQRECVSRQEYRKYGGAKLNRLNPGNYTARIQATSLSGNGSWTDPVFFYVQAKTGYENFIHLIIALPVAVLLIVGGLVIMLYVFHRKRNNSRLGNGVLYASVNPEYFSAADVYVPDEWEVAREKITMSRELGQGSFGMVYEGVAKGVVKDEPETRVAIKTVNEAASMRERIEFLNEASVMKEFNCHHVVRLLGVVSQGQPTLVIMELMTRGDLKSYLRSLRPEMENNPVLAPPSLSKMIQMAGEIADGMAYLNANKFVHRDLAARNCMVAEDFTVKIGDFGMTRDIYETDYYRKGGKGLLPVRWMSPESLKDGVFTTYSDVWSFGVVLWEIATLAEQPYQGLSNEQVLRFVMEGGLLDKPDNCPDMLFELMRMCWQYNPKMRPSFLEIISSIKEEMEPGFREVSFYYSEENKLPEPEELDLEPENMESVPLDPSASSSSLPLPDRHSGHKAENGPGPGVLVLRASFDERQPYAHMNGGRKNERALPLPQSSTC
# Description: Inhibition of human IGF1R at 18.6 nM by HotSpot assay relative to control
smiles,measurement,setting,value
Nc1n[nH]c2nnc(-c3c(-c4ccccc4)nn4ccccc34)cc12,inhibition,[1],-0.84%
same,inhibition,[2],6.65%
C[C@@]1(C(=O)Nc2ccc(F)nc2)CCCN1c1nc(Nc2cc(C3CC3)n[nH]2)c2cccn2n1,inhibition,[3],1.57%
same,inhibition,[4],-0.32%
same,inhibition,[5],5.94%
C[C@]1(O)C[C@@H](c2nc(-c3ccc4ccc(-c5ccccc5)nc4c3)c3c(N)nccn32)C1,inhibition,[6],9%
same,inhibition,[7],-2.29%
same,inhibition,[8],66.3%
Oc1n[nH]c2nnc(-c3c(-c4ccccc4)nn4ccccc34)cc12,inhibition,[1],-1.47%
same,inhibition,[2],10.2%

# Source: ChEMBL document CHEMBL5653615 (J Biol Chem, 2013)
